Experimental findings from US20240254089A1, “MODULATORS OF MAS-RELATED G-PROTEIN RECEPTOR X4 AND RELATED PRODUCTS AND METHODS” (ESCIENT PHARMACEUTICALS, INC., priority 2020, published 2024) are described below.

pIC50: −log10 of the molar value. Read-outs that look alike come from different tables or passages of the source.

The target of this assay is T1, human MRGPR X4 (Homo sapiens, UniProt Q96LA9).
T1 construct: expressed in transfected cells
The experiment in a line: MRGPR X4 antagonist activity, IP-One Gq HTRF assay in stably transfected HEK cells. The format is cell-based. The method in brief: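 IC50 comes from HTRF IP-1 accumulation in stably transfected HEK cells expressing human MRGPR X4. Compounds (10 uM top, 1:3 serial, 10 points) were co-incubated with 10 μM bilirubin, 20 μM deoxycholic acid or 100 μM conjugated bilirubin in LiCl-containing buffer, pH 8, for 1 h at 37 °C plus 30 min at room temperature.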

[1] abbreviates: versus 20 μM deoxycholic acid agonist, HEK cells expressing human MRGPR X4, read-out: MRGPRX4 Antagonist Activity.

T1 sequence (Q96LA9 whole entry): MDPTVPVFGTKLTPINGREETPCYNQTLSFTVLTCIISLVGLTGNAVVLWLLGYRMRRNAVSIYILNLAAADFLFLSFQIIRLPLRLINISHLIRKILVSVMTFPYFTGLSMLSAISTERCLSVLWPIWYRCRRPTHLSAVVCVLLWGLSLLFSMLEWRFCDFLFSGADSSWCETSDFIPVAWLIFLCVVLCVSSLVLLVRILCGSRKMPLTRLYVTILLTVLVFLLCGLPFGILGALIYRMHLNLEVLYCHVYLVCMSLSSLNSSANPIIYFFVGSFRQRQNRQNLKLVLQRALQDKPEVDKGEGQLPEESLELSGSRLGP

Take `Cc1cc(S(=O)(=O)NC(=O)c2nn(Cc3ccc(OC(F)F)cc3)c3ccccc23)ccc1C#N` [Compound 259]: the pIC50 under setting [1] was 6.30 to 7.00.
The same measure, in the same setting: then `Cc1cccc(S(=O)(=O)NC(=O)c2nn(Cc3ccccc3C#N)c3ccccc23)c1` [Compound 260], with 6.00 to 6.30.
`O=C(NS(=O)(=O)c1ccc(Cl)cc1Cl)c1nn(Cc2cccc(F)c2)c2ccccc12` [Compound 261] had a pIC50 of 6.00 to 6.30.
Take `O=C(NS(=O)(=O)c1ccccc1C(F)(F)F)c1nn(Cc2ccc(OC(F)F)cc2)c2ccccc12` [Compound 262]: under setting [1], the pIC50 was 6.00 to 6.30.
`Cc1cc(S(=O)(=O)NC(=O)c2nn(Cc3ccc(C(F)(F)F)cc3Cl)c3ccccc23)ccc1C#N` [Compound 263]: the pIC50 under setting [1] was 6.00 to 6.30.
Consider `Cc1ccc(CS(=O)(=O)NC(=O)c2nn(Cc3ccc(Cl)cc3)c3ccccc23)cc1` [Compound 264], for which, under setting [1], the pIC50 was 6.00 to 6.30.
Still for that read-out and setting: then `O=C(NS(=O)(=O)c1cccc(C(F)(F)F)c1)c1nn(Cc2ccc(OC(F)F)cc2)c2ccccc12` [Compound 265], with 6.00 to 6.30.
As for `O=C(NS(=O)(=O)c1ccc(F)cc1)c1nn(Cc2ccc(OC(F)F)cc2)c2ccccc12` [Compound 266], the pIC50 was 6.00 to 6.30.
As for `O=C(NS(=O)(=O)c1cccc(F)c1)c1nn(Cc2ccc(OC(F)F)cc2)c2ccccc12` [Compound 267], the pIC50 under setting [1] is 6.00 to 6.30.
Still for that read-out and setting: then `Cc1cc(C)cc(S(=O)(=O)NC(=O)c2nn(Cc3ccc(OC(F)F)cc3)c3ccccc23)c1` [Compound 268], with 6.00 to 6.30.
On the same count and under the same terms, then `O=C(NS(=O)(=O)c1ccccc1F)c1nn(Cc2ccc(OC(F)F)cc2)c2ccccc12` [Compound 269], with 5.60 to 6.00.
`Cc1cccc(S(=O)(=O)NC(=O)c2nn(Cc3ccc(OC(F)F)cc3)c3ccccc23)c1` [Compound 270] gave a pIC50 of 5.60 to 6.00.
Consider `Cc1nc(S(=O)(=O)NC(=O)c2nn(Cc3ccc(Cl)cc3)c3ccccc23)sc1C` [Compound 271], for which the pIC50 under setting [1] is 5.60 to 6.00.
On to `Cc1cccc(S(=O)(=O)NC(=O)c2nn(Cc3ccc(OC(F)(F)F)cc3)c3ccccc23)c1` [Compound 272], for which the pIC50 under setting [1] is 5.60 to 6.00.
For `Cc1cccc(S(=O)(=O)NC(=O)c2nn(Cc3ccc(C#N)cc3)c3ccccc23)c1` [Compound 273], the pIC50 under setting [1] was 5.60 to 6.00.
In the case of `Cc1cc(F)cc(S(=O)(=O)NC(=O)c2nn(Cc3ccc(OC(F)F)cc3)c3ccccc23)c1` [Compound 274], the pIC50 under setting [1] is 5.60 to 6.00.
`COc1ccc(S(=O)(=O)NC(=O)c2nn(Cc3ccc(OC(F)F)cc3)c3ccccc23)cc1C` [Compound 275]: the pIC50 under setting [1] is 5.60 to 6.00.
On to `O=C(NS(=O)(=O)c1ccc(C(F)(F)F)cc1)c1nn(Cc2ccc(OC(F)F)cc2)c2ccccc12` [Compound 276], for which the pIC50 under setting [1] is 5.60 to 6.00.
The same measure, in the same setting: then `COC(=O)c1ccc(S(=O)(=O)NC(=O)c2nn(Cc3ccc(OC(F)F)cc3)c3ccccc23)cc1` [Compound 277], with 5.60 to 6.00.
The same measure, in the same setting: the value for `Cc1cccc(S(=O)(=O)NC(=O)c2nn(Cc3ccc(OC(F)F)cc3)c3ccccc23)c1F` [Compound 278] was 5.60 to 6.00.
The same measure, in the same setting: the value for `Cc1cccc(S(=O)(=O)NC(=O)c2nn(Cc3ccc(Cl)cc3)c3ccccc23)c1` [Compound 279] was 5.60 to 6.00; that for `N#Cc1ccc(S(=O)(=O)NC(=O)c2nn(Cc3ccc(OC(F)F)cc3)c3ccccc23)cc1` [Compound 280] was 5.60 to 6.00; that for `O=C(NS(=O)(=O)c1cccc(OC(F)(F)F)c1)c1nn(Cc2ccc(OC(F)F)cc2)c2ccccc12` [Compound 281] was 5.60 to 6.00.
Regarding `Cc1cccc(S(=O)(=O)NC(=O)c2nn(Cc3ccc(OC(F)F)cc3)c3ccccc23)c1C` [Compound 282], the pIC50 under setting [1] is 5.60 to 6.00.
On the same count and under the same terms, the value for `Cc1cccc(S(=O)(=O)NC(=O)c2nn(Cc3ccc(OC(F)F)cc3)c3ccccc23)c1Cl` [Compound 283] was 5.60 to 6.00; that for `Cc1ccccc1S(=O)(=O)NC(=O)c1nn(Cc2ccc(C(F)(F)F)cc2Cl)c2ccccc12` [Compound 284] was 5.60 to 6.00.
As for `COc1cccc(S(=O)(=O)NC(=O)c2nn(Cc3ccc(OC(F)F)cc3)c3ccccc23)c1` [Compound 285], the pIC50 under setting [1] was 5.60 to 6.00.
As for `O=C(NS(=O)(=O)c1ccccc1OC(F)(F)F)c1nn(Cc2ccc(OC(F)F)cc2)c2ccccc12` [Compound 286], the pIC50 under setting [1] is 5.60 to 6.00.
`Cc1ccccc1S(=O)(=O)NC(=O)c1nn(Cc2ccc(Cl)cc2)c2ccccc12` [Compound 287] showed a pIC50 of 5.60 to 6.00.
On to `Cc1ccccc1CS(=O)(=O)NC(=O)c1nn(Cc2ccc(Cl)cc2)c2ccccc12` [Compound 288], for which the pIC50 under setting [1] is 5.60 to 6.00.
`COc1ccc(S(=O)(=O)NC(=O)c2nn(Cc3ccc(OC(F)F)cc3)c3ccccc23)cc1` [Compound 289]: under setting [1], the pIC50 was 5.60 to 6.00.
Still for that read-out and setting: the value for `Cc1cc(S(=O)(=O)NC(=O)c2nn(Cc3ccc(OC(F)F)cc3)c3ccccc23)ccc1F` [Compound 290] was 5.60 to 6.00; that for `O=C(NS(=O)(=O)c1ccccn1)c1nn(Cc2ccc(Cl)cc2)c2ccccc12` [Compound 291] was 5.60 to 6.00; that for `Cc1cccc(S(=O)(=O)NC(=O)c2nn(Cc3ccc(F)cc3)c3ccccc23)c1` [Compound 292] was 5.60 to 6.00.
Still for that read-out and setting: then `COc1ccc(Cn2nc(C(=O)NS(=O)(=O)c3cccc(C)c3)c3ccccc32)cc1` [Compound 293], with 5.60 to 6.00; and `O=C(NS(=O)(=O)c1ccc(Cl)cc1Cl)c1nn(Cc2ccc(OC(F)F)cc2)c2ccccc12` [Compound 294], with 5.60 to 6.00; and `Cc1ccc(S(=O)(=O)NC(=O)c2nn(Cc3ccc(OC(F)F)cc3)c3ccccc23)cc1C` [Compound 295], with 5.60 to 6.00.
For the compound `O=C(NS(=O)(=O)c1ccc(OC(F)(F)F)cc1)c1nn(Cc2ccc(OC(F)F)cc2)c2ccccc12` [Compound 296], under setting [1], the pIC50 was < 5.60.
On to `Cc1ccc(Cn2nc(C(=O)NS(=O)(=O)c3cccc(C)c3)c3ccccc32)cc1` [Compound 297], for which the pIC50 under setting [1] is < 5.60.
On the same count and under the same terms, then `O=C(NS(=O)(=O)Cc1ccccn1)c1nn(Cc2ccc(Cl)cc2)c2ccccc12` [Compound 299], with < 5.60; and `COc1cccc(CS(=O)(=O)NC(=O)c2nn(Cc3ccc(Cl)cc3)c3ccccc23)c1` [Compound 300], with < 5.60.
Still for that read-out and setting: the value for `N#Cc1ccc(S(=O)(=O)NC(=O)c2nn(Cc3cccc(F)c3)c3ccccc23)cc1Cl` [Compound 301] was < 5.60.
Take `CC(C)c1ccccc1S(=O)(=O)NC(=O)c1nn(Cc2ccc(Cl)cc2)c2ccccc12` [Compound 302]: under setting [1], the pIC50 is < 5.60.
For the compound `Cc1cc(S(=O)(=O)NC(=O)c2nn(Cc3ccc(OC(F)F)cc3)c3ccccc23)ccc1Cl` [Compound 303], the pIC50 under setting [1] is < 5.60.
On the same count and under the same terms, then `O=C(NS(=O)(=O)c1cccnc1)c1nn(Cc2ccc(Cl)cc2)c2ccccc12` [Compound 304], with < 5.60.
In the case of `Cc1cccc(S(=O)(=O)NC(=O)c2nn(Cc3ccc(Cl)cc3)c3ccccc23)n1` [Compound 305], the pIC50 under setting [1] was < 5.60.
Still for that read-out and setting: the value for `Cc1cccc(S(=O)(=O)NC(=O)c2nn(Cc3ccc(C(F)(F)F)cc3Cl)c3ccccc23)c1` [Compound 306] was < 5.60; that for `Cc1c(Cl)cccc1S(=O)(=O)NC(=O)c1nn(Cc2cccc(F)c2)c2ccccc12` [Compound 307] was < 5.60; that for `O=C(NS(=O)(=O)c1ccc(Cl)cc1Cl)c1nn(Cc2ccc(Cl)cc2)c2ccccc12` [Compound 308] was < 5.60.
